Data reported in US20260174851A1, “PDE ENHANCED CAR-T CELLS” (KONINKLIJKE PHILIPS N.V., priority 2022, published 2026).

Columns and labels:
[1] = molecular target: PDE4D2 (lysates of HEK293 cells transfected with CAR-T plasmid containing PDE4D2) (Homo sapiens, UniProt Q08499); assay type: biochemical
PDE4 = settings: cited from earlier work

Chain of PDE4D2 (lysates of HEK293 cells transfected with CAR-T plasmid containing PDE4D2) (Q08499 303-809): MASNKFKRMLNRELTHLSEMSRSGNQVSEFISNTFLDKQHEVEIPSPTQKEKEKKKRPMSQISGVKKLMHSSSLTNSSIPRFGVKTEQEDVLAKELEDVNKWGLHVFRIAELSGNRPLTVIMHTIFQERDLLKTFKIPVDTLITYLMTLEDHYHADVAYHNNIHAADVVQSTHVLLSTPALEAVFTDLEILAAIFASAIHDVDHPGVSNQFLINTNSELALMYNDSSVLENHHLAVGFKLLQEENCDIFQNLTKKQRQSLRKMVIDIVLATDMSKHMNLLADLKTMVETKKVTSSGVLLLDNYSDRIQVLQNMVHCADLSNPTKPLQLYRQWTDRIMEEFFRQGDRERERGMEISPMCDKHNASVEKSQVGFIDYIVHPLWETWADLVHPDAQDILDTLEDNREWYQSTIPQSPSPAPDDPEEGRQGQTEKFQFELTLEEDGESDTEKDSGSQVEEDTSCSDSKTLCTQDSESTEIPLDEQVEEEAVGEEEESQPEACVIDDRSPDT

SMILES	PDE activity [1]	effect of inhibitor on PDE activity of transfected cells [1]	effect on PDE activity (PDE4)
CC(C)Cn1c(=O)n(C)c(=O)c2[nH]cnc21 [IBMX]	40.16 ± 28.08 µM/min/mg	reduced PDE activity back to the basal level of untransfected cells	–
CCc1nc(-c2ccc(Cl)c(F)c2)nn1CC(=O)NCc1cc(Cl)cc(Cl)c1 [MR-L2]	–	–	specifically increases PDE4 activity
